Source: patent publication US7060822B1, “2-pyrazolin-5-ones” (Abbott GmbH & Co. KG, priority 1999, dated 2006)

melting point [°C] | Compound
255 to 257 | Cc1ccc(NC2=NNC(=O)C2=Cc2c[nH]c3ccccc23)cc1 [Example 221, 4-[(Indol-3-yl)methylene]-3-(4-methylphenylamino)-2-pyrazolin-5-one]
265 to 267 | COc1ccc(NC2=NNC(=O)C2=Cc2c[nH]c3ccccc23)cc1 [Example 222, 4-[(Indol-3-yl)methylene]-3-(4-methoxyphenylamino)-2-pyrazolin-5-one]
274 to 277 | O=C1NN=C(Cc2ccc(Cl)cc2)C1=Cc1c[nH]c2ccccc12 [Example 223, 3-(4-Chlorobenzyl)-4-[(indol-3-yl)methylene]-2-pyrazolin-5-one]
204 to 206 | COc1ccc(CC2=NNC(=O)C2=Cc2cn(CCCCO)c3ccccc23)cc1 [Example 224, 4-{[1-(4-hydroxybutyl)indol-3-yl]methylene}-3-(4-methoxybenzyl)-2-pyrazolin-5-one]
248 to 250 | O=C1NN=C(Nc2ccc(Cl)cc2)C1=Cc1c[nH]c2ccccc12 [Example 225, 3-(4-Chlorophenylamino)-4-[(indol-3-yl)methylene]-2-pyrazolin-5-one]
288 to 290 | COc1cccc(CC2=NNC(=O)C2=Cc2c[nH]c3ccccc23)c1 [Example 226, 4-[(Indol-3-yl)methylene]-3-(3-methoxybenzyl)-2-pyrazolin-5-one]
282 to 284 | COc1ccc(CC2=NNC(=O)C2=Cc2c[nH]c3ccccc23)cc1OC [Example 227, 3-(3,4-dimethoxybenzyl)-4-[(indol-3-yl)methylene]-2-pyrazolin-5-one]
295 to 300 | O=C1NN=C(Cc2ccc(O)cc2)C1=Cc1c[nH]c2ccccc12 [Example 228, 3-(4-hydroxybenzyl)-4-[(indol-3-yl)methylene]-2-pyrazolin-5-one]
265 to 268 | O=C1NN=C(COc2cccc(Cl)c2)C1=Cc1c[nH]c2ccccc12 [Example 229, 3-(3-Chlorophenyloxymethyl)-4-[(indol-3-yl)methylene]-2-pyrazolin-5-one]
288 to 292 | O=C1NN=C(c2c[nH]c3ccccc23)C1=Cc1c[nH]c2ccccc12 [Example 230, 3-(Indol-3-yl)-4-[(indol-3-yl)methylene]-2-pyrazolin-5-one]
266 to 268 | COc1ccc(CCC2=NNC(=O)C2=Cc2c[nH]c3ccccc23)cc1 [Example 231, 4-[(Indol-3-yl)methylene]-3-(4-methoxyphenylethyl)-2-pyrazolin-5-one]
295 to 296 | O=C1NN=C(COc2ccc(-c3ccccc3)cc2)C1=Cc1c[nH]c2ccccc12 [Example 232, 4-[(Indol-3-yl)methylene]-3-(4-phenylphenyloxymethyl)-2-pyrazolin-5-one]
253 to 255 | CC(CC1=NNC(=O)C1=Cc1c[nH]c2ccccc12)c1ccccc1 (stereo not drawn) [Example 233, 4-[(Indol-3-yl)methylene]-3-(2-phenylpropyl)-2-pyrazolin-5-one]
218 to 220 | O=C1NN=C(CCCc2ccccc2)C1=Cc1c[nH]c2ccccc12 [Example 234, 4-[(Indol-3-yl)methylene]-3-(3-phenylpropyl)-2-pyrazolin-5-one]
271 to 275 | O=C1NN=C(CCc2ccc(O)cc2)C1=Cc1c[nH]c2ccccc12 [Example 235, 3-(4-Hydroxyphenylethyl)-4-[(indol-3-yl)methylene]-2-pyrazolin-5-one]
244 to 245 | Cc1ccc(CCC2=NNC(=O)C2=Cc2c[nH]c3ccccc23)cc1 [Example 236, 4-[(Indol-3-yl)methylene]-3-(4-methylphenylethyl)-2-pyrazolin-5-one]
248 to 250 | CCOC1=NNC(=O)C1=Cc1c[nH]c2ccccc12 [Example 237, 3-Ethoxy-4-[(indol-3-yl)methylene]-2-pyrazolin-5-one]
210 to 212 | CC(C)OC1=NNC(=O)C1=Cc1cn(CCCCO)c2ccccc12 [Example 238, 4-{[1-(4-Hydroxybutyl)indol-3-yl]methylene}-3-isopropoxy-2-pyrazolin-5-one]
